Test results taken from the supplement of paper PMC10307832.

Columns and labels:
Experiment in all cases: relative viability (nuclei count vs DMSO), 5 days (fraction); higher = more cells survive
Bicalutamide + Lapatinib = compound: CC(O)(CS(=O)(=O)c1ccc(F)cc1)C(=O)Nc1ccc(C#N)c(C(F)(F)F)c1 [Bicalutamide] + CS(=O)(=O)CCNCc1ccc(-c2ccc3ncnc(Nc4ccc(OCc5cccc(F)c5)c(Cl)c4)c3c2)o1 [Lapatinib] (partner 2 µM)
Method in brief: (§1)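 Relative viability divides the nuclei count in treated wells by that in vehicle wells. Lung cancer cell lines were seeded in 1536-well plates, dosed by pin tool the next day, and fixed and stained after 5 days in one step with final 0.05% Triton X-100, 1% formaldehyde and 1 ug/ml Hoechst. Dosing was a single drug or a fixed anchor-drug dose plus five library-drug doses (not always all listed) in √10 steps, and values are medians of duplicate plates imaged at 4×.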

[1] = compound: C(C(=O)C(=O)O)Br [Bromopyruvate] + N=C(N)NC(=N)NCCc1ccccc1 [Phenformin] (partner 250 µM)
Method in brief: as §1

[2] = compound: C(C(=O)C(=O)O)Br [Bromopyruvate] + O=C(CCCCCCC(=O)Nc1ccccc1)NO [Vorinostat] (partner 1 µM)
Method in brief: as §1

[3] = compound: CC(O)(CS(=O)(=O)c1ccc(F)cc1)C(=O)Nc1ccc(C#N)c(C(F)(F)F)c1 [Bicalutamide] + O=C(CCCCCCC(=O)Nc1ccccc1)NO [Vorinostat] (partner 1 µM)
Method in brief: as §1

Cell Line | relative viability (Bicalutamide + Lapatinib; first compound 0.08 µM) | relative viability (Bicalutamide + Lapatinib; first compound 0.253 µM) | relative viability (Bicalutamide + Lapatinib; first compound 0.8 µM) | relative viability (Bicalutamide + Lapatinib; first compound 2.53 µM) | relative viability ([1]; first compound 1 µM) | relative viability ([1]; first compound 3.162 µM) | relative viability ([1]; first compound 10 µM) | relative viability ([1]; first compound 31.62 µM) | relative viability ([1]; first compound 100 µM) | relative viability ([2]; first compound 1 µM) | relative viability ([2]; first compound 3.162 µM) | relative viability ([2]; first compound 10 µM) | relative viability ([2]; first compound 31.62 µM) | relative viability ([2]; first compound 100 µM) | relative viability ([3]; first compound 0.08 µM) | relative viability ([3]; first compound 0.253 µM) | relative viability ([3]; first compound 0.8 µM) | relative viability ([3]; first compound 2.53 µM)
NCI-H1975 | 0.851 | 0.854 | 1.12 | 0.785 | 0.431 | 0.443 | 0.439 | 0.407 | 0.367 | 0.741 | 0.761 | 0.687 | 0.675 | 0.582 | 0.73 | 0.742 | 0.703 | 0.557
CAL-12T | 0.809 | 0.661 | 0.891 | 0.581 | 0.556 | 0.491 | 0.667 | 0.58 | 0.529 | 0.696 | 0.769 | 0.762 | 0.705 | 0.489 | 0.945 | 0.607 | 0.915 | 0.623
NCI-H1623 |  |  |  |  | 0.545 | 0.654 | 0.635 | 0.588 | 0.625 |  |  |  |  |  |  |  |  | 
HCC-44 | 1.05 | 0.987 | 1.12 | 1.05 | 0.346 | 0.191 | 0.185 | 0.184 | 0.16 | 1.12 | 1.04 | 1.07 | 1.1 | 1.13 | 1.12 | 1.21 | 1.1 | 1.12
EKVX | 0.194 | 0.247 | 0.192 | 0.207 | 0.256 | 0.24 | 0.243 | 0.246 | 0.233 | 0.668 | 0.685 | 0.718 | 0.729 | 0.713 | 0.814 | 0.656 | 0.711 | 0.713
NCI-H1651 | 0.731 | 0.744 | 1.07 | 0.788 | 0.323 | 0.345 | 0.429 | 0.331 | 0.349 | 0.612 | 0.573 | 0.578 | 0.466 | 0.345 | 0.577 | 0.514 | 0.662 | 0.567
NCI-H1944 | 0.857 | 0.607 | 0.899 | 0.904 | 0.218 | 0.225 | 0.217 | 0.206 | 0.214 | 0.592 | 0.647 | 0.582 | 0.568 | 0.654 | 0.54 | 0.516 | 0.593 | 0.438
NCI-H1703 | 1.16 | 1.03 | 1.18 | 0.643 |  |  |  |  |  |  |  |  |  |  |  |  |  | 
Calu-6 | 1.16 | 1.01 | 1.12 | 1.08 |  |  |  |  |  |  |  |  |  |  |  |  |  | 
EBC-1 | 0.209 | 0.206 | 0.211 | 0.214 |  |  |  |  |  |  |  |  |  |  |  |  |  | 
A-427 | 0.945 | 1.08 | 1.19 | 1.1 | 0.417 | 0.353 | 0.25 | 0.335 | 0.261 | 0.87 | 0.899 | 0.841 | 0.767 | 0.835 | 0.883 | 0.9 | 0.866 | 0.842
NCI-H2405 | 1.2 | 1.01 | 1.16 | 0.852 | 0.403 | 0.432 | 0.421 | 0.354 | 0.388 | 1.35 | 1.01 | 0.814 |  | 0.742 | 1.09 | 0.985 | 1.49 | 0.975
NCI-H1355 | 1 | 0.902 | 0.974 | 1.03 | 0.473 | 0.481 | 0.442 | 0.483 | 0.504 | 0.668 | 0.641 | 0.646 | 0.607 | 0.606 | 0.679 | 0.596 | 0.691 | 0.609
NCI-H358 | 0.471 | 0.475 | 0.524 | 0.51 | 0.406 | 0.327 | 0.351 | 0.304 | 0.315 | 0.77 | 0.607 | 0.626 | 0.541 | 0.505 | 0.804 | 0.604 | 0.662 | 0.544
RERF-LC-KJ | 0.904 | 0.862 | 1.07 | 0.705 | 0.4 | 0.438 | 0.514 | 0.429 | 0.416 | 0.707 | 0.655 | 0.673 | 0.626 | 0.516 | 0.779 | 0.606 | 0.864 | 0.564
NCI-H23 | 1.07 | 0.987 | 1.38 | 0.843 | 0.778 | 0.842 | 0.837 | 0.809 | 0.857 | 0.569 | 0.639 | 0.64 | 0.538 | 0.39 | 0.758 | 0.498 | 0.697 | 0.465
HOP-62 | 1.13 | 0.995 | 1.05 | 1.07 | 0.704 | 0.643 | 0.645 | 0.737 | 0.696 | 0.716 | 0.579 | 0.569 | 0.534 | 0.428 | 0.783 | 0.606 | 0.689 | 0.52
HARA | 0.841 | 0.514 | 0.904 | 0.701 | 0.496 | 0.431 | 0.503 | 0.483 | 0.476 | 0.692 | 0.511 | 0.628 | 0.528 | 0.37 | 0.469 | 0.477 | 0.586 | 0.517
PC-14 | 0.301 | 0.295 | 0.452 | 0.297 | 0.754 | 0.737 | 0.776 | 0.546 | 0.516 | 0.755 | 0.706 | 0.587 | 0.516 | 0.482 | 0.854 | 0.605 | 0.732 | 0.574
NCI-H1755 | 1.03 | 1.06 | 1.05 | 0.928 | 0.648 | 0.609 | 0.599 | 0.642 | 0.71 | 0.862 | 0.819 | 0.682 | 0.768 | 0.651 | 0.727 | 0.748 | 0.916 | 0.635
HCC-78 | 0.74 | 0.977 | 0.91 | 0.682 | 0.644 | 0.719 | 0.759 | 0.516 | 0.657 | 0.493 | 0.443 | 0.444 | 0.404 | 0.427 | 0.489 | 0.436 | 0.462 | 0.447
